# Read-outs that look alike come from different tables or passages of the source.
# Columns and labels:
# [1] = tested on: Yap phosphorylation in HEK293A cells; test: cellular assay of Yap phosphorylation (ratio of pYap to tYap in homogenates from treated cells); format: cell-based; details: HEK293-A
# LATS1 = target: T1, LATS1 (Homo sapiens, UniProt O95835); test: in vitro Lats kinase assay (enzymological assay); format: biochemical; details: for true inhibitory activities: implied, Lats concentration 555 pM in the assay, affinities at or below lower limit of accurate quantification
# T1 sequence (O95835 589-1130 limits assumed): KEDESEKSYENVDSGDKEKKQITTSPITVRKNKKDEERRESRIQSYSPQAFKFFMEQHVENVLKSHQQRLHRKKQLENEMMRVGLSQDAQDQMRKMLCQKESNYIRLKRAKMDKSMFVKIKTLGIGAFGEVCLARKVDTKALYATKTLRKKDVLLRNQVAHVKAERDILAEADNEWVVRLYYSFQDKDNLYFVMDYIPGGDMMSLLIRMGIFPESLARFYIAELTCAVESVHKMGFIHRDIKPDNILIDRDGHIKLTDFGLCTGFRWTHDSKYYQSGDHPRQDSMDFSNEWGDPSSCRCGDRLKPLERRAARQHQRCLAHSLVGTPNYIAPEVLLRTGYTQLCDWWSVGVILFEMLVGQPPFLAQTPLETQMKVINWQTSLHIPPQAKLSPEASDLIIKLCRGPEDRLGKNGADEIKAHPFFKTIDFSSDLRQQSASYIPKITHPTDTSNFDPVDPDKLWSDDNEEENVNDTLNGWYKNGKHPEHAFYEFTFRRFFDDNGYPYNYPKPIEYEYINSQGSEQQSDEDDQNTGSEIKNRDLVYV
# [2] = mouse liver microsome stability; format: in vitro ADME; design: unit not given here
# Text: (§1) Fig. 1. […] HLM, human liver microsome; MLM, mouse liver microsome.
# [3] = human liver microsome stability; format: in vitro ADME; design: unit not given here
# Text: as §1
# human retinal organoids = test: apoptosis in human retinal organoids (activated caspase 3 labeling); details: 10 μM TRULI or 3 μM TDI-011536
# Text: Control experiments relating to gene expression in retinal organoids. (A) Although
# increased b-actin concentrations in mitotically active cells.
# extensive proliferation of Müller cells marked with Sox2 (green), as signaled by labeling with
# arrowheads). DAPI (blue) marks all the nuclei.
# [4] = tested on: Yap phosphorylation in human retinal organoids; test: Yap phosphorylation in human retinal organoids (immunoblot pYap/tYap); format: cell-based; details: 3 μM, 24 h, vs DMSO controls
# Text: (§2) Fig. 2. […] Each sample includes five organoids; β-actin serves as a loading control.
# (§3) The supernatants were filtered and the lysates
# (§4) The proteins were transferred to a PVDF
# (§5) The extent of proliferation was […]
# [5] = tolerability of intraperitoneal dosing in mice
# Text: Assays of Lats kinase inhibition
# assigned to treated and control groups.
# Measurement of in vivo Lats inhibition
# Yap target genes = test: RNA sequencing of livers and hearts after injection; format: in vivo, mouse
# cardiomyocytes = test: EdU incorporation in hearts of mice after right-ventricle cryolesion; format: in vivo, mouse
# Text: Cardiomyocytes ordinarily display little or no proliferation in mature mammals; instead, cardiac lesions in mice evoke scarring ([18]). To ascertain whether TDI-011536 restores a capacity for proliferation, we therefore examined the effect of systemic administration of the compound on damaged hearts in mice. After optimizing the surgical approach and establishing an appropriate dosage regime, we conducted eight experiments on male 8-week-old mice. In each instance, we used a metal probe cooled in liquid nitrogen to create a small cryolesion on the right ventricle ([18]).
# In 33 images from 13 sections from the hearts of the two animals treated with TDI-011536 for 3 d, the average density of EdU labeling was 17.0 ± 3.5 μm^−2 (mean ± SD; SI Appendix, Table S3). By contrast, 28 images from 12 sections from controls yielded a labeling density of 5.6 ± 2.1 μm^−2 (mean ± SD; SI Appendix, Table S4). Because the values for the two control samples were not statistically different, those data were combined. […] Combining the experimental results as well yielded an overall significance of P < 10^−21 (SI Appendix, Fig. S5). […]
# Cryolesioning of the murine right ventricle
# Cardiac lesions were produced by a variant of a published method (6). Twenty minutes before surgery, an adult Swiss Webster mouse (Charles River Laboratories) four or eight weeks of age and of either sex was given buprenorphine subcutaneously at a dosage of 100 µg/kg for analgesia. The animal was anesthetized with 100 mg/kg of ketamine and 5 mg/kg of xylazine administered intraperitoneally in sterile water. The animal's mid-ventrum was shaved, chemically depilitated, and sterilized with a povidine-iodine swab. The area of the skin incision was infiltrated intradermally with 1 mg/kg of bupivacaine. Subsequent procedures were conducted beneath a surgical microscope and under sterile conditions in a HEPA-filtered, […]
# With the animal supine on a thermostatted heating pad at 40 °C, an oblique, 15 mm-long incision was made from the xiphoid process parallel to the left lower costal margin and about 3 mm caudal to it. After the abdominal musculature and peritoneum had been transected with scissors in the same pattern, a miniature retractor was introduced to separate the two […]
# sides of the incision. This approach exposed the upper margin of the liver and provided a view of the beating heart and the base of the left lung through the transparent diaphragm.
# A cryolesion of the right ventricle was created with a round aluminum rod of mass 1.44 g secured to a plastic handle. A total of 76 mm in length, the rod was 3.2 mm in diameter over a distance of 59 mm at the base and 2.15 mm in diameter over the 17 mm at the tip. […]
# [6] = tested on: Müller glia in human retinal organoids; test: proliferation of Müller glia in human retinal organoids (EdU/Sox9); format: cell-based
# Text: as §2, §3, §4, §5
# [7] = tested on: Yap phosphorylated at residue S127 (pYap); test: in vivo Lats inhibition: immunoblot of pYap and tYap in heart, liver and skin after intraperitoneal injection
# Protocol: The compound was dissolved in Kolliphor HS 15, a vehicle that was also injected into control animals.
# Engagement of target organs in vivo. (A) Immunoblots portray the amounts of Yap phosphorylated at residue S127 (pYap) and the total amounts of Yap (tYap) in the liver, heart, and skin. […] Glyceraldehyde 3-phosphate dehydrogenase (Gapdh) is included in each instance as a loading control.
# We compared the original 200 mg/kg dose to injections of 100 mg/kg and 50 mg/kg.
# procedures involved Swiss Webster mice (Charles River Laboratories) of both sexes and were conducted with the approval of Rockefeller University's Institutional Animal Care and Use Committee. Within each experiment, animals were age- and sex-matched and were randomly assigned to treated and control groups.
# each day of treatment, an animal received a single intraperitoneal injection of the mixture to
# In the principal experiment with a dosage of 100 mg/kg, or 20 mL/kg, a typical animal of mass 30 g received an injection of 0.6 mL of
# Fifty milligrams of heart, liver, or skin tissue was lysed on ice in radioimmunoprecipitation-assay
# After remaining on ice for 30 min, the samples were sonicated at low power for 2 min with 10 s exposures separated by 10 s interruptions, then
# The supernatants were filtered and the lysates were immediately subjected to electrophoresis or stored at -80 °C.
# A standard immunoblotting protocol was used. After lysates had been prepared, 10 mg
# gradient bis-tris gel (NP0322, Thermo Fisher). The proteins were transferred to a PVDF
# (ab8245, Abcam), which were reconstituted at a dilution of 1:1000 in blocking solution. After a
# Secondary antibodies conjugated to horseradish peroxidase (W401B and W402B, Promega) were applied at a dilution of 1:10,000 in the same solution for one hour at room temperature
# were acquired with an iBright FL1000 system (Invitrogen).
# [8] = tested on: supporting cells of the internal ear; design: method as in PMID 34035288; details: in vitro; cited from earlier work
# [9] = heart, 4 h after 200 mg/kg, ± SEM, three measurements
# [10] = liver, 4 h after 200 mg/kg, ± SEM, three measurements
smiles,measurement,setting,value
Cc1cn(Cc2ccccc2)/c(=N/C(=O)c2c[nH]c3ncccc23)s1 [TDI-011214],EC50,[1]; read-out: pYAP EC50,3140 nM
same,IC50,LATS1,224 nM
Cc1cs/c(=N\C(=O)c2c[nH]c3ncccc23)n1Cc1ccccc1 [TDI-011241],MLM activity,[2],358
same,HLM activity,[3],224
same,EC50,[1]; read-out: pYAP EC50,107 nM
same,IC50,LATS1,0.96 nM
same,true inhibitory activities,LATS1,lower than 1 nM
O=C(/N=c1\scc(CO)n1Cc1ccccc1)c1c[nH]c2ncccc12 [TDI-011536],apoptosis by labeling for activated caspase 3,human retinal organoids,little apoptosis
same,reduction in Yap phosphorylation (ratio of pYap to tYap),[4],~80%
same,survival and ill effects,"[5]; both, Swiss Webster, mouse, in vivo, ip, 100 mg/kg, 2 wk",survival of all the mice for 2 wk with no apparent ill effects
same,toxicity of systemic administration in young mice,"[5]; young mice, intraperitoneal injection",lethality related to intraperitoneal injection
same,"Amotl2 expression, Heart, Treated",Yap target genes; [9],11.53 ± 0.13 rLog
same,"Ccn1 expression, Heart, Treated",Yap target genes; [9],11.46 ± 0.29 rLog
same,"Ccn2 expression, Heart, Treated",Yap target genes; [9],14.02 ± 0.14 rLog
same,"Myc expression, Heart, Treated",Yap target genes; [9],8.15 ± 0.10 rLog
same,gene set-enrichment of genes characteristically activated upon Yap expression,"Yap target genes; liver and heart, 4 h after 200 mg/kg",significant enrichment
same,damage in the organs examined (gene set-enrichment for inflammation and apoptosis terms),"Yap target genes; liver and heart, 4 h treatment in vivo, 200 mg/kg",did not elicit significant damage
same,"Amotl2 expression, Liver, Treated",Yap target genes; [10],10.21 ± 0.07 rLog
same,"Ccn1 expression, Liver, Treated",Yap target genes; [10],9.50 ± 0.27 rLog
same,"Ccn2 expression, Liver, Treated",Yap target genes; [10],10.55 ± 0.33 rLog
same,"Myc expression, Liver, Treated",Yap target genes; [10],10.67 ± 0.23 rLog
same,EdU-labeled cardiomyocytes at high magnification,cardiomyocytes; 100 mg/kg i.p. two or three days after cryolesion,numerous labeled cardiomyocytes
same,"density of EdU-labeled cells, Specimen 1 (mean ± SD)","cardiomyocytes; 14 images, treated animal",15.2 ± 3.0 mm-2
same,"density of EdU-labeled cells, Specimen 2 (mean ± SD)","cardiomyocytes; 19 images, treated animal",18.3 ± 3.4 mm-2
same,average density of EdU labeling (mean ± SD),"cardiomyocytes; two animals treated for 3 d, 100 mg/kg i.p., 33 images from 13 sections, controls 5.6 ± 2.1",17 ± 3.5 mm^-2
same,MLM activity,[2],72
same,HLM activity,[3],36
same,increase in the number of cells doubly positive for EdU and Sox9,"[6]; 3 μM, 5 d treatment",tenfold
same,EC50,[1]; read-out: EC50 (mean ± SEM) for pYap/tYap,40.8 ± 4.5 nM
same,EC50,"[1]; HEK293A cells, value printed in Fig. 1A, read-out: pYAP EC50",10 nM
same,"pYap in liver, heart and skin","[7]; 50 mg/kg, after 4 h",no longer diminished pYap significantly in any organ
same,dephosphorylation of Yap in the liver and heart,"[7]; 100 mg/kg, through 4 h",maintained the dephosphorylation of Yap
same,dephosphorylation of Yap in the skin,"[7]; 100 mg/kg, through 4 h",failed to do so
same,pYap levels,"[7]; 200 mg/kg intraperitoneal, by eight hours",returned to their baseline levels
same,"pYap relative to total Yap in heart, liver and skin","[7]; 200 mg/kg intraperitoneal, two or four hours after injection",remarkable reduction
same,"pYap in liver, heart and skin","[7]; 200, 100 and 50 mg/kg, within 2 h of injection",profound reductions of pYap
same,"duration of Lats inhibition in the liver, heart, and skin",[7]; injection of 200 mg/kg,over 4 h
same,IC50,LATS1,0.76 nM
same,true inhibitory activities,LATS1,lower than 1 nM
"O=C(/N=c1\sccn1Cc1ccccc1)c1c[nH]c2ncccc12 [TRULI, reference compound]",apoptosis by labeling for activated caspase 3,human retinal organoids,little apoptosis
same,MLM activity,[2],303
same,HLM activity,[3],200
same,increase in the number of Sox9-positive Müller glia that incorporated EdU,"[6]; 10 μM, 5-d treatment",almost fivefold
same,EC50,[1]; read-out: pYAP EC50,586 nM
same,mitosis in supporting cells of the organ of Corti,[8],fails to elicit such a response
same,mitosis in supporting cells of the utricle,[8],robust mitosis

# Source: article PMC9282237, “Development of an improved inhibitor of Lats kinases to promote regeneration of mammalian organs” (Proceedings of the National Academy of Sciences of the …, 2022)
